# Test results: PubChem BioAssay (NCI)
# “And” between values parts separate entries of the source, which are not always exact repeats. Identical values can stand only once.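 Dose response: 5 concentrations. Exposure: 48 h. Format: 96-well plates. Endpoint: linear interpolation; highest concentration if not reached. GI50 is the concentration that inhibits growth by half. Definition used: TGI = concentration required for complete inhibition of growth.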
# How the values were obtained:
# Experiment in all cases: NCI tumour cell line growth inhibition, 48 h
# SW-620 colon = test system: SW-620 colon
# HCC-2998 colon = test system: HCC-2998 colon
# HS 578T breast = test system: HS 578T breast
# OVCAR-5 ovarian = test system: OVCAR-5 ovarian
# NCI-H460 lung = test system: NCI-H460 lung
# UACC-62 melanoma = test system: UACC-62 melanoma
# UO-31 renal = test system: UO-31 renal
# EKVX NSCLC = test system: EKVX NSCLC
# HOP-62 NSCLC = test system: HOP-62 NSCLC
# OVCAR-8 ovarian = test system: OVCAR-8 ovarian
SMILES,GI50 (SW-620 colon),TGI (SW-620 colon),GI50 (HCC-2998 colon),TGI (HCC-2998 colon),GI50 (HS 578T breast),TGI (HS 578T breast),GI50 (OVCAR-5 ovarian),TGI (OVCAR-5 ovarian),GI50 (NCI-H460 lung),TGI (NCI-H460 lung) [µM],GI50 (UACC-62 melanoma) [µM],TGI (UACC-62 melanoma) [µM],GI50 (UO-31 renal),TGI (UO-31 renal),GI50 (EKVX NSCLC),TGI (EKVX NSCLC),GI50 (HOP-62 NSCLC),TGI (HOP-62 NSCLC),GI50 (OVCAR-8 ovarian),TGI (OVCAR-8 ovarian)
CC[C@H](Nc1nc(N)nc(C)c1C#N)c1nc2cccc(CN(C)c3ncc(C(=O)NO)cn3)c2c(=O)n1-c1ccccc1,392 nM,3.43 µM,0.806 µM,2.32 µM,474 nM,> 11.1 µM,0.678 µM,3.05 µM,1150 nM,11.2,0.199,0.897,1 µM,3.05 µM,1.69 µM,16.9 µM,0.804 µM,4.42 µM,0.704 µM,10.3 µM
CCN(CC)c1ccc(/C=C/c2cc(C)c3ccccc3n2)cc1,1870 nM,9.21 µM,4.11 µM,81.1 µM,2090 nM,5.75 µM,7.09 µM,75.3 µM,3000 nM,11.7,3.31,22.6,3.18 µM,15 µM,4.95 µM,44.9 µM,4.6 µM,34.7 µM,4.64 µM,55.8 µM
CC(C)(O)c1ccc(N2CCN(c3nnc(Cc4ccccc4)c4ccccc34)CC2)nc1,17100 nM,38.5 µM,14 µM,27.8 µM,15300 nM,41.4 µM,17.2 µM,38.9 µM,9830 nM,34.3,8.44,21.9,3.49 µM,19.5 µM,4 µM,19.8 µM,13.7 µM,28.6 µM,8.01 µM,42.5 µM
COc1ccc2c(c1)CCC1C2CCC2(C)C1CCC2(O)CNC(=O)CCCCC1CCSS1 (configuration not stated),12400 nM,> 100 µM,2.13 µM,5.52 µM,13900 nM,> 100 µM,> 100 µM,> 100 µM,3250 nM,> 100,13.9,49.4,24.9 µM,> 100 µM,48 µM,> 100 µM,25 µM,> 100 µM,11.7 µM,> 100 µM
Fc1ccc2[nH]cc(Cc3c[nH]c4ccc(F)cc34)c2c1,23700 nM,58.8 µM,13.3 µM,30.3 µM,18500 nM,44.5 µM,17.5 µM,38 µM,25300 nM,> 100,12,28.3,13.7 µM,33.7 µM,17.6 µM,41.8 µM,19.6 µM,40.9 µM,19.4 µM,52 µM
COc1ccc(C(=O)/C=C/c2ccc(Cl)cc2)cc1S(=O)(=O)Nc1c(N)nc(SC)[nH]c1=O,2240 nM,5.5 µM,1.92 µM,3.53 µM,3560 nM,24.2 µM,2.83 µM,9.53 µM,2490 nM,6.29,2.33,6.65,1.89 µM,4.53 µM,3.94 µM,18.3 µM,1.81 µM,3.97 µM,3.07 µM,9.56 µM
Cc1cc(N2CCCCC2)nc(N(CCNc2ccnc3cc(Cl)ccc23)Cc2ccco2)n1,1530 nM,3.08 µM,2.14 µM,4.48 µM,2340 nM,5.52 µM,2.4 µM,6.84 µM,1760 nM,3.34,1.74,3.34,1.41 µM,2.77 µM,2.09 µM,6.07 µM,1.73 µM,3.73 µM,1.85 µM,3.68 µM
CC1=C(C(=O)OCc2ccccc2)C(c2ccc3c(c2)OCO3)n2c(nc3ccccc32)N1 (configuration not stated),346 nM,> 100 µM,> 33.2 µM,> 100 µM,299 nM,> 48.8 µM,> 100 µM,> 100 µM,369 nM,> 100,0.513,> 100,0.544 µM,> 79.5 µM,0.692 µM,> 100 µM,8.01 µM,> 100 µM,0.628 µM,> 100 µM
O=C(O)[C@@H]1C2CC([C@@H]1C(=O)O)[C@H](N1C(=O)CCC1=O)[C@@H]2Br (some centres not stated),–,> 100 µM,–,> 100 µM,–,> 100 µM,–,> 100 µM,–,> 100,–,> 100,–,> 100 µM,–,> 100 µM,–,> 100 µM,–,> 100 µM
Cc1ccc(C(=O)Nc2ccc(S(=O)(=O)O)c3cc(S(=O)(=O)O)cc(S(=O)(=O)O)c23)cc1NC(=O)c1cccc(N)c1,–,> 100 µM,–,> 100 µM,–,> 100 µM,–,> 100 µM,–,> 100,–,> 100,–,> 100 µM,–,> 100 µM,–,> 100 µM,–,> 100 µM
N#CSc1ncnc2nc[nH]c12,7850 nM,> 100 µM,3.9 µM,> 100 µM,4790 nM,> 92.6 µM,17.2 µM,> 100 µM,17300 nM,> 100,4.1,> 100,10.4 µM,> 100 µM,41.8 µM,> 100 µM,2.31 µM,> 100 µM,5.72 µM,> 100 µM
COc1cc2nc(Cl)nc(Nc3cccc(C(=O)/C=C/c4ccccc4)c3)c2cc1OC,2790 nM,> 100 µM,2.54 µM,5.56 µM,4190 nM,> 64.1 µM,8.79 µM,> 100 µM,4200 nM,> 100,2.55,10.1,17.8 µM,> 100 µM,> 33.7 µM,> 100 µM,3.71 µM,31.7 µM,4.99 µM,> 100 µM
O=C(Nc1cccc(Cl)c1)Nc1ncc(CCNc2ncnc3ccsc23)s1,14500 nM and > 10000 nM,65.3 µM and > 10 µM,9.38 µM and > 10 µM,25.6 µM and > 10 µM,2920 nM and 640 nM,39.7 µM and > 10 µM,9.88 µM and > 10 µM,25.5 µM and > 10 µM,114 nM and 991 nM,> 72.2,1.1,11.7,6.01 µM and 3.22 µM,28.7 µM and > 10 µM,3.13 µM and 3.14 µM,19 µM and > 10 µM,2.37 µM and 1.41 µM,15.3 µM and > 10 µM,1.68 µM and 1.22 µM,9.64 µM and 5.31 µM
CCN1C(=O)N(CC)C2C1NN=c1s/c(=C3\C(=O)N(C(C)C)c4ccccc43)c(=O)n12 (configuration not stated),417 nM,> 100 µM,0.357 µM,> 20.8 µM,336 nM,40.3 µM,0.639 µM,> 100 µM,354 nM,> 100,0.466,> 36.2,0.636 µM,> 100 µM,0.606 µM,> 100 µM,0.441 µM,42.7 µM,0.62 µM,> 53.4 µM
O=C(CCl)c1ccc([N+](=O)[O-])o1,886 nM,2.54 µM,5.36 µM,11.2 µM,2720 nM,8.66 µM,2.48 µM,5.3 µM,10300 nM,28.1,2.13,5.62,2.14 µM,6.7 µM,10.7 µM,32.6 µM,7.58 µM,17.6 µM,3.33 µM,18.8 µM
NC(=O)[C@H]1CCN(c2ncnc(N)c2F)C[C@@H]1N1CCC[C@@H](Nc2cc(Cl)cc(C(F)(F)F)c2)C1=O,25600 nM,> 100 µM,14.6 µM,36.3 µM,15500 nM,> 100 µM,13.5 µM,59.3 µM,18400 nM,41.6,13.9,29.5,9.16 µM,> 100 µM,28.7 µM,77.1 µM,22 µM,> 100 µM,25.6 µM,> 100 µM
CCn1c(-c2nonc2N)nc2cncc(C(=O)N3CCNCC3)c21,> 25000 nM,> 25 µM,> 25 µM,> 25 µM,> 25000 nM,> 25 µM,> 25 µM,> 25 µM,> 25000 nM,> 25,> 25,> 25,> 25 µM,> 25 µM,> 25 µM,> 25 µM,> 25 µM,> 25 µM,> 25 µM,> 25 µM
Nc1nc(/C=C\c2ccc([N+](=O)[O-])o2)nc(N2CCN(c3ccccc3)CC2)n1,4600 nM,> 100 µM,10.1 µM,25.8 µM,25300 nM,93 µM,31.5 µM,62.5 µM,3090 nM,> 100,7.36,25.8,13.6 µM,39.8 µM,23.1 µM,> 100 µM,17.5 µM,51.3 µM,25.8 µM,> 100 µM
Nc1ncnc2c1ccn2C1OC2COP(=O)(O)OC2C1O (configuration not stated),–,> 44.5 µM,–,9.45 µM,–,> 31 µM,–,46.9 µM,–,12.9,–,1.45,–,> 100 µM,–,57.7 µM,–,11.2 µM,–,7.94 µM
CC(C)(C(=O)NN)c1ccccc1,–,> 100 µM,–,> 100 µM,–,> 100 µM,–,> 100 µM,–,> 100,–,> 100,–,> 100 µM,–,> 100 µM,–,> 100 µM,–,> 100 µM
CCN=C1C=CC(=C(c2ccc(N(C)C)cc2)c2ccc(N(C)C)cc2)c2ccccc21,113 nM,1.11 µM,0.137 µM,0.696 µM,149 nM,1.02 µM,0.215 µM,1.19 µM,65.7 nM,0.572,–,–,0.196 µM,0.663 µM,0.0445 µM,0.488 µM,0.0825 µM,0.578 µM,0.0816 µM,1.7 µM
COc1cccc(C2=C(c3cn(C)c4ccccc34)C(=O)NC2=O)c1,9130 nM,> 25 µM,> 22.1 µM,> 25 µM,4800 nM,> 25 µM,> 25 µM,> 25 µM,13700 nM,> 25,11.5,> 25,10.8 µM,> 25 µM,–,–,> 22.8 µM,> 25 µM,8.25 µM,> 25 µM
COc1ccc(Cn2nc(-c3cc(OC)c(OC)c(OC)c3)c3c2CCc2cnoc2-3)cc1OC,3980 nM,> 100 µM,5.85 µM,> 100 µM,2220 nM,15.2 µM,26.6 µM,> 100 µM,3280 nM,> 100,3.78,56.5,4.17 µM,> 100 µM,–,–,6.35 µM,82.7 µM,19.6 µM,> 100 µM
CN(C)CCNC(=O)c1cccn2c(=O)c3cc4ccccc4cc3nc12,51.5 nM,2.08 µM,0.241 µM,1.06 µM,153 nM,1.76 µM,0.217 µM,13.7 µM,43.9 nM,0.283,0.194,1.37,–,–,0.353 µM,–,0.0784 µM,0.554 µM,0.0577 µM,> 69.6 µM
CC12CCC=CC1CCC1C2CCC2(C)C(c3ccc(=O)oc3)CCC12O (configuration not stated),55.8 nM,0.33 µM,0.342 µM,3.42 µM,29.2 nM,0.308 µM,0.176 µM,0.485 µM,–,–,0.221,0.723,0.0647 µM,0.189 µM,0.0636 µM,0.193 µM,0.0511 µM,0.21 µM,0.0999 µM,0.501 µM
OCC1OC(n2ccc3c2ncn2ncnc32)C(O)C1O (configuration not stated),528 nM,> 100 µM,3.09 µM,> 100 µM,6460 nM,85.9 µM,1.19 µM,> 100 µM,2250 nM,> 100,8.42,> 100,2.74 µM,> 100 µM,–,–,0.595 µM,33.1 µM,0.392 µM,5.68 µM
